Test results taken from patent US20140322434A1, “METHODS FOR PRODUCING ELECTROPHOTOGRAPHIC PHOTOSENSITIVE MEMBER AND ORGANIC DEVICE EACH HAVING CHARGE TRANSPORTING LAYER” (CANON KABUSHIKI KAISHA, priority 2011, published 2014).
Like-named read-outs stand apart in the source and are kept apart here.

Tests used:
[1] = Solubility in water at 25° C. and 1 atm
Description: In the method for producing an electrophotographic photosensitive member of the present invention, the charge transporting substance and the binder resin are dissolved in the first liquid to prepare the first solution. […] Specific examples of the first liquid are shown in Table 1, but are not limited to the examples in Table 1.
Then, the second solution will be described.

[2] = Solubility of second liquid in the first liquid at 25° C. and 1 atm; conditions: for Solubility in first liquid: first liquid described in Table 1; for solubility in first solution: liquids of Comparative Examples 5 to 11
[3] = second liquid, 25° C. and 1 atm
[4] = liquids of Comparative Examples 5 to 11, 25° C. and 1 atm

## CCc1ccccc1 [First liquid example (6), Ethylbenzene]
[1]; first liquid, 25° C. and 1 atm
  Solubility in water: 0.0 mass %

## C1CCOOC1 [Second liquid example (3), 1,2-dioxane]
[2]
  Solubility in first liquid: 5.0 mass % or

## CCCCOCC(C)O (stereo not drawn) [Second liquid example (24), propylene glycol monobutyl ether]
[2]
  Solubility in first liquid: 5.0 mass % or
[1]; [3]
  Solubility in water: 6.4 mass %

## COCC(C)OC(C)=O (stereo not drawn) [Second liquid example (25), propylene glycol monomethyl ether acetate]
[2]
  Solubility in first liquid: 5.0 mass % or
[1]; [3]
  Solubility in water: 20.5 mass %

## CCOCCOCCOCC [Second liquid example (27), diethylene glycol diethyl ether]
[2]
  Solubility in first liquid: 5.0 mass % or

## CCCC(C)=O [Second liquid example (8), 2-pentanone]
[2]
  Solubility in first liquid: 5.0 mass % or
[1]; [3]
  Solubility in water: 5.9 mass %

## CCOCCOCCOC [Second liquid example (26), diethylene glycol methyl ethyl ether]
[2]
  Solubility in first liquid: 5.0 mass % or

## CCOC(C)=O [Second liquid example (31), ethyl acetate]
[2]
  Solubility in first liquid: 5.0 mass % or

## COCCOCCOC [Second liquid example (11), diethylene glycol dimethyl ether]
[2]
  Solubility in first liquid: 5.0 mass % or

## Clc1ccccc1 [First liquid example (4), Chlorobenzene]
[1]; first liquid, 25° C. and 1 atm
  Solubility in water: 0.1 mass %

## COC(C)COC(C)CO (stereo not drawn) [Second liquid example (22), dipropylene glycol monomethyl ether]
[2]
  Solubility in first liquid: 5.0 mass % or

## C1COCOC1 [Second liquid example (4), 1,3-dioxane]
[2]
  Solubility in first liquid: 5.0 mass % or

## CC(C)COCCO [Second liquid example (19), ethylene glycol monoisobutyl ether]
[2]
  Solubility in first liquid: 5.0 mass % or

## CCCCOCC(C)O (stereo not drawn) [Second liquid example (13), propylene glycol n-butyl ether]
[2]
  Solubility in first liquid: 5.0 mass % or
[1]; [3]
  Solubility in water: 6.0 mass %

## C=CCOCCO [Second liquid example (20), ethylene glycol monoallyl ether]
[2]
  Solubility in first liquid: 5.0 mass % or

## COC(C)CCOC(C)=O (stereo not drawn) [Second liquid example (34), 3-methoxybutyl acetate]
[2]
  Solubility in first liquid: 5.0 mass % or

## COC(C)CCO (stereo not drawn) [Second liquid example (33), 3-methoxybutanol]
[2]
  Solubility in first liquid: 5.0 mass % or

## CCOCCOCCO [Second liquid example (16), diethylene glycol monoethyl ether]
[2]
  Solubility in first liquid: 5.0 mass % or

## Clc1ccccc1Cl [First liquid example (3), o-Dichlorobenzene]
[1]
  Solubility in water: 0.0 mass %

## CCCCOC(C)COC(C)COC(C)CO (stereo not drawn) [Liquid (5), tripropylene glycol n-butyl ether, reference compound]
[2]
  solubility in first solution: ≥ 5.0 mass %
[1]; [4]
  Solubility in water: 2.9 mass %

## CC(=O)OC(C)C [Liquid (4), isopropyl acetate, reference compound]
[1]
  Solubility in water: 2.9 mass %

## COCCOC [Second liquid example (12), ethylene glycol dimethyl ether]
[2]
  Solubility in first liquid: 5.0 mass % or

## COCOC [Second liquid example (2), dimethoxymethane]
[2]
  Solubility in first liquid: 5.0 mass % or
[1]; [3]
  Solubility in water: 32.3 mass %

## C1OCOCO1 [Second liquid example (6), 1,3,5-trioxane]
[2]
  Solubility in first liquid: 5.0 mass % or
[1]; [3]
  Solubility in water: 21.1 mass %

## OCCOCCOc1ccccc1 [Liquid (2), diethylene glycol monophenyl ether, reference compound]
[2]
  solubility in first solution: ≥ 5.0 mass %
[1]; [4]
  Solubility in water: 3.4 mass %

## COCC(C)O (stereo not drawn) [Second liquid example (21), propylene glycol monomethyl ether]
[2]
  Solubility in first liquid: 5.0 mass % or

## COC(C)COC(C)COC(C)CO (stereo not drawn) [Second liquid example (23), tripropylene glycol monomethyl ether]
[2]
  Solubility in first liquid: 5.0 mass % or

## COCC(C)OCC(C)OC (stereo not drawn) [Second liquid example (28), dipropylene glycol dimethyl ether]
[2]
  Solubility in first liquid: 5.0 mass % or

## CC(=O)OCC(C)OC(C)=O (stereo not drawn) [Second liquid example (29), propylene glycol diacetate]
[2]
  Solubility in first liquid: 5.0 mass % or

## CCOc1ccccc1 [First liquid example (7), Phenetole]
[1]; first liquid, 25° C. and 1 atm
  Solubility in water: 0.1 mass %

## Cc1ccccc1C [First liquid example (5), o-Xylene]
[1]; first liquid, 25° C. and 1 atm
  Solubility in water: 0.0 mass %

## CCCOCC(C)O (stereo not drawn) [Second liquid example (14), propylene glycol monopropyl ether]
[2]
  Solubility in first liquid: 5.0 mass % or

## CC(=O)OCCCCOC(C)=O [Liquid (6), 1,4-butanediol diacetate, reference compound]
[2]
  solubility in first solution: ≥ 5.0 mass %
[1]; [4]
  Solubility in water: 4.2 mass %
